Data as given in ChEMBL document CHEMBL3991601, “The target landscape of clinical kinase drugs” (Science, 2017).
Calls of active or inactive are those of the source. For most assays here, no stated cut-off is given here; in the data, actives have a measured Kd and inactives only a lower limit.

Assays:
[1] = molecular target: Ribosomal protein S6 kinase alpha-3 (Homo sapiens, UniProt P51812)
[2] = molecular target: T1, Serine/threonine-protein kinase STK11 (Homo sapiens, UniProt Q15831)
T1 sequence (Q15831 whole entry): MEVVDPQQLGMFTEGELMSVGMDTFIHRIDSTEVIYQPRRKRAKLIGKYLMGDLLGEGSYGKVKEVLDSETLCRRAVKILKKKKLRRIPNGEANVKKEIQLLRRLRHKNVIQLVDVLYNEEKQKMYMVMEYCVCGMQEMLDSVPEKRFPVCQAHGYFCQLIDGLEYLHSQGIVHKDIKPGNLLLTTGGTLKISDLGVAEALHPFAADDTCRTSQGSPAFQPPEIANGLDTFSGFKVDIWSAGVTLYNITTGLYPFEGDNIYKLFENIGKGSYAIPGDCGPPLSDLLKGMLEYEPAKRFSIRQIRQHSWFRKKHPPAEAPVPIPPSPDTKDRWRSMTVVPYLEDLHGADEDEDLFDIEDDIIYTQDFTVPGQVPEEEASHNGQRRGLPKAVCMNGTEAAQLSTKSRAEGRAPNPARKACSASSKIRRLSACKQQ

[3] = molecular target: Ras-related protein Rab-6A (Homo sapiens, UniProt P20340)
Sequence of Ras-related protein Rab-6A (P20340 whole entry): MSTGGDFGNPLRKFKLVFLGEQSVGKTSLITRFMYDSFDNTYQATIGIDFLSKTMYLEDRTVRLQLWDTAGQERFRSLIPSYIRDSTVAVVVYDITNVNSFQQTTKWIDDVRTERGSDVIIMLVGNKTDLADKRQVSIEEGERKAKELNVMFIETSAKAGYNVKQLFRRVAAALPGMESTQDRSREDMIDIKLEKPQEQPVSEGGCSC

TGF-beta receptor type-2 = TGF-beta receptor type-2 (Homo sapiens, UniProt P37173)
Sequence of TGF-beta receptor type-2 (P37173 whole entry, canonical isoform): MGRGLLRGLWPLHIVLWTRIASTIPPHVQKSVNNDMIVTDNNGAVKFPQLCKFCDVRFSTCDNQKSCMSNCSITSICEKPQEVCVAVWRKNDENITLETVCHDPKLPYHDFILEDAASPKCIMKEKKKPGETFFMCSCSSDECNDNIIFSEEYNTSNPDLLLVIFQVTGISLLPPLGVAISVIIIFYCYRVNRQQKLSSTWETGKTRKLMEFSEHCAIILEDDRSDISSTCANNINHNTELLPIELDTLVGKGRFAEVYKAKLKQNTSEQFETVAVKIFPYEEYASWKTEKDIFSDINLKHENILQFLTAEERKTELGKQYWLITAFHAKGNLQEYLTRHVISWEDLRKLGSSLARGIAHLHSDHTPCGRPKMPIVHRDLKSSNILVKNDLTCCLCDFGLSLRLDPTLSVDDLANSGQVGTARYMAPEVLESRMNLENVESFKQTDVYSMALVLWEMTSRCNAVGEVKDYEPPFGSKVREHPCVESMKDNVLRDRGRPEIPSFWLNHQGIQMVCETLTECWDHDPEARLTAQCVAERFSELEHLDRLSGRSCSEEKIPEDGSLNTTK

[4] = molecular target: Casein kinase I isoform alpha (Homo sapiens, UniProt P48729)
Sequence of Casein kinase I isoform alpha (P48729 whole entry, canonical isoform): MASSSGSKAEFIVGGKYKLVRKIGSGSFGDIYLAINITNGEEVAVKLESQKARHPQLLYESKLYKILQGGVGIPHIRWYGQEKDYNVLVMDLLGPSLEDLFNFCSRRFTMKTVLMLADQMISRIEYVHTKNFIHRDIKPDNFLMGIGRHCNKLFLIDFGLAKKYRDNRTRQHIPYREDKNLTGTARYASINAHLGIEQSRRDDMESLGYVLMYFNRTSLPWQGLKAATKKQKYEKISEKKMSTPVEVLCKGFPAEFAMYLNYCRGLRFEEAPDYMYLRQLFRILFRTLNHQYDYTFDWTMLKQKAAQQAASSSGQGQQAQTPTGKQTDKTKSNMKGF

[5] = molecular target: Cyclin-dependent kinase 3 (Homo sapiens, UniProt Q00526)
Sequence of Cyclin-dependent kinase 3 (Q00526 whole entry): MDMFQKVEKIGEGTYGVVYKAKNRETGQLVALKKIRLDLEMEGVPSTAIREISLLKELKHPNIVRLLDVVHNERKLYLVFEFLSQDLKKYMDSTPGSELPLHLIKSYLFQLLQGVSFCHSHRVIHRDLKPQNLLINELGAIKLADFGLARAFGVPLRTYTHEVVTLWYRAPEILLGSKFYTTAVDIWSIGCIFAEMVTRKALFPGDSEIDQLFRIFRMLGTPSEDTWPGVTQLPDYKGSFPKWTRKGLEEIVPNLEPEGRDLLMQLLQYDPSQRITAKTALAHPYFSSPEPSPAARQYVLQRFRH

[6] = molecular target: Serine/threonine-protein kinase PAK 4 (Homo sapiens, UniProt O96013)
Sequence of Serine/threonine-protein kinase PAK 4 (O96013 whole entry): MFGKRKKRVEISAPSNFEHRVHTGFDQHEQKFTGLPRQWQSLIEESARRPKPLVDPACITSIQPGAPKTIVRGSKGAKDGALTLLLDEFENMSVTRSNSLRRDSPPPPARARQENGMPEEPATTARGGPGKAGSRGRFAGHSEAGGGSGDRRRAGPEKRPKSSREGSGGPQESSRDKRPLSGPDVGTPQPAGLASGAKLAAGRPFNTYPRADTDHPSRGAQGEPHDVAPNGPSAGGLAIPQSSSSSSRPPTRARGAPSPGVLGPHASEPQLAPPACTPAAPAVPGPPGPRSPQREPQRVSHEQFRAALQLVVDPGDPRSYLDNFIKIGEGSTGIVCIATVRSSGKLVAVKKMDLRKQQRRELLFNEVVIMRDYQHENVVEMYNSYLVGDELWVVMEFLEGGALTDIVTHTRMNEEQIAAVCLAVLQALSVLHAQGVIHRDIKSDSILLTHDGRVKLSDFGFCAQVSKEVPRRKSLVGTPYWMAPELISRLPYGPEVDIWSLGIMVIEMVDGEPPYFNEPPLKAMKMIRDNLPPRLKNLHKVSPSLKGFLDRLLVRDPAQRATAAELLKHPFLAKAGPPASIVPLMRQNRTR

[7] = molecular target: Serine/threonine-protein kinase N2 (Homo sapiens, UniProt Q16513)
[8] = molecular target: T2, Acyl-CoA dehydrogenase family member 11 (Homo sapiens, UniProt Q709F0)
T2 sequence (Q709F0 whole entry): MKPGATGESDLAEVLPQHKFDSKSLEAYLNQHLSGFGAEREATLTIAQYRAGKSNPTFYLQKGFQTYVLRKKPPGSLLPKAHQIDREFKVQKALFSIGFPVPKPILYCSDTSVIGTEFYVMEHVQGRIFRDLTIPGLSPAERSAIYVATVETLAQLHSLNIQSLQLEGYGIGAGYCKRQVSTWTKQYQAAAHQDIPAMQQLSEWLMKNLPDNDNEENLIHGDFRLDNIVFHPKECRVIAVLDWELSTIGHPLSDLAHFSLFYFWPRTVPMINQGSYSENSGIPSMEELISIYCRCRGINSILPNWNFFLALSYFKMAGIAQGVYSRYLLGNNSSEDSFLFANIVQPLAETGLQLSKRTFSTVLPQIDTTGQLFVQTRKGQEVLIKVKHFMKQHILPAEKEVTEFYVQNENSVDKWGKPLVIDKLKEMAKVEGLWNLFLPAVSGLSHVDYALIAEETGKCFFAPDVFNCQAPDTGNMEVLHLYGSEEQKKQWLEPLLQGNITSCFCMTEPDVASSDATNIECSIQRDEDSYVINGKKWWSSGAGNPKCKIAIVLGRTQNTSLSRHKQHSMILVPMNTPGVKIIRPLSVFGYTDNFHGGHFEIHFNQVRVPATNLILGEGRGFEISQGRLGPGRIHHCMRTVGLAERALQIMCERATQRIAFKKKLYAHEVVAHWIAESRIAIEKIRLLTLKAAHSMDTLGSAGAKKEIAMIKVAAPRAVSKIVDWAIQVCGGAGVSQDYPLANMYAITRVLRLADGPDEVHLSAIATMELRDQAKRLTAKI

[9] = molecular target: Atypical kinase COQ8A, mitochondrial (Homo sapiens, UniProt Q8NI60)
Sequence of Atypical kinase COQ8A, mitochondrial (Q8NI60 whole entry): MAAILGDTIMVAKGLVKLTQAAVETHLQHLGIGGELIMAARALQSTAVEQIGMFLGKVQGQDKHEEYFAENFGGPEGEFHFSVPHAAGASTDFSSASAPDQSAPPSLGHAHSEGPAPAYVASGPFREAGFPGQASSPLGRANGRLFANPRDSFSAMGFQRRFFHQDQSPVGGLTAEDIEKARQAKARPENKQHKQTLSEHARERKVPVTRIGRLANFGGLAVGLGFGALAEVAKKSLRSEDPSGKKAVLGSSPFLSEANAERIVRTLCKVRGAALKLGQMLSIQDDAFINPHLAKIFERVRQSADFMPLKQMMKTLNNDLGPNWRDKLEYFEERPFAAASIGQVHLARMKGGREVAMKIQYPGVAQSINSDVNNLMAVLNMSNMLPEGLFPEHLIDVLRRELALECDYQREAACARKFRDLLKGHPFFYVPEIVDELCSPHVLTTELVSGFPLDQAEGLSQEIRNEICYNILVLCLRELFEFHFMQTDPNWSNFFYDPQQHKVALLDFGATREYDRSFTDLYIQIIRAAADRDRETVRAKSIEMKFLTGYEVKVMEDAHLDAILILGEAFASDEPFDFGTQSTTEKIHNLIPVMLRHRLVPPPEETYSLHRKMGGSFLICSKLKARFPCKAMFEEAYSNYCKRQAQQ

[10] = molecular target: T3, Serine/threonine-protein kinase Chk1 (Homo sapiens, UniProt O14757)
T3 sequence (O14757 whole entry): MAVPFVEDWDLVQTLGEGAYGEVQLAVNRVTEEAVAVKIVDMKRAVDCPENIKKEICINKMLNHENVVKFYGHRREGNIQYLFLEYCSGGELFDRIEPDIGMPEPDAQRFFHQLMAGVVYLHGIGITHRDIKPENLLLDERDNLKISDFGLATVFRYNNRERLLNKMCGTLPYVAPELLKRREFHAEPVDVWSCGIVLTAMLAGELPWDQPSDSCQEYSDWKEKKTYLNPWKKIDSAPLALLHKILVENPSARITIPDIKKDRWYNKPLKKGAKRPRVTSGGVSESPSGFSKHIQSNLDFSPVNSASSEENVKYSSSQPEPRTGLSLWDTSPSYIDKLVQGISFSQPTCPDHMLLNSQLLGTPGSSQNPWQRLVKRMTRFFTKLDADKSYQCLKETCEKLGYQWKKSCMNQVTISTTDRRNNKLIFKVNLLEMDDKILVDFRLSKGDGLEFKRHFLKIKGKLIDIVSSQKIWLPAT

[11] = molecular target: Cyclin-dependent kinase 2 (Homo sapiens, UniProt P24941)
[12] = molecular target: U5 small nuclear ribonucleoprotein 200 kDa helicase (Homo sapiens, UniProt O75643)
Sequence of U5 small nuclear ribonucleoprotein 200 kDa helicase (O75643 whole entry): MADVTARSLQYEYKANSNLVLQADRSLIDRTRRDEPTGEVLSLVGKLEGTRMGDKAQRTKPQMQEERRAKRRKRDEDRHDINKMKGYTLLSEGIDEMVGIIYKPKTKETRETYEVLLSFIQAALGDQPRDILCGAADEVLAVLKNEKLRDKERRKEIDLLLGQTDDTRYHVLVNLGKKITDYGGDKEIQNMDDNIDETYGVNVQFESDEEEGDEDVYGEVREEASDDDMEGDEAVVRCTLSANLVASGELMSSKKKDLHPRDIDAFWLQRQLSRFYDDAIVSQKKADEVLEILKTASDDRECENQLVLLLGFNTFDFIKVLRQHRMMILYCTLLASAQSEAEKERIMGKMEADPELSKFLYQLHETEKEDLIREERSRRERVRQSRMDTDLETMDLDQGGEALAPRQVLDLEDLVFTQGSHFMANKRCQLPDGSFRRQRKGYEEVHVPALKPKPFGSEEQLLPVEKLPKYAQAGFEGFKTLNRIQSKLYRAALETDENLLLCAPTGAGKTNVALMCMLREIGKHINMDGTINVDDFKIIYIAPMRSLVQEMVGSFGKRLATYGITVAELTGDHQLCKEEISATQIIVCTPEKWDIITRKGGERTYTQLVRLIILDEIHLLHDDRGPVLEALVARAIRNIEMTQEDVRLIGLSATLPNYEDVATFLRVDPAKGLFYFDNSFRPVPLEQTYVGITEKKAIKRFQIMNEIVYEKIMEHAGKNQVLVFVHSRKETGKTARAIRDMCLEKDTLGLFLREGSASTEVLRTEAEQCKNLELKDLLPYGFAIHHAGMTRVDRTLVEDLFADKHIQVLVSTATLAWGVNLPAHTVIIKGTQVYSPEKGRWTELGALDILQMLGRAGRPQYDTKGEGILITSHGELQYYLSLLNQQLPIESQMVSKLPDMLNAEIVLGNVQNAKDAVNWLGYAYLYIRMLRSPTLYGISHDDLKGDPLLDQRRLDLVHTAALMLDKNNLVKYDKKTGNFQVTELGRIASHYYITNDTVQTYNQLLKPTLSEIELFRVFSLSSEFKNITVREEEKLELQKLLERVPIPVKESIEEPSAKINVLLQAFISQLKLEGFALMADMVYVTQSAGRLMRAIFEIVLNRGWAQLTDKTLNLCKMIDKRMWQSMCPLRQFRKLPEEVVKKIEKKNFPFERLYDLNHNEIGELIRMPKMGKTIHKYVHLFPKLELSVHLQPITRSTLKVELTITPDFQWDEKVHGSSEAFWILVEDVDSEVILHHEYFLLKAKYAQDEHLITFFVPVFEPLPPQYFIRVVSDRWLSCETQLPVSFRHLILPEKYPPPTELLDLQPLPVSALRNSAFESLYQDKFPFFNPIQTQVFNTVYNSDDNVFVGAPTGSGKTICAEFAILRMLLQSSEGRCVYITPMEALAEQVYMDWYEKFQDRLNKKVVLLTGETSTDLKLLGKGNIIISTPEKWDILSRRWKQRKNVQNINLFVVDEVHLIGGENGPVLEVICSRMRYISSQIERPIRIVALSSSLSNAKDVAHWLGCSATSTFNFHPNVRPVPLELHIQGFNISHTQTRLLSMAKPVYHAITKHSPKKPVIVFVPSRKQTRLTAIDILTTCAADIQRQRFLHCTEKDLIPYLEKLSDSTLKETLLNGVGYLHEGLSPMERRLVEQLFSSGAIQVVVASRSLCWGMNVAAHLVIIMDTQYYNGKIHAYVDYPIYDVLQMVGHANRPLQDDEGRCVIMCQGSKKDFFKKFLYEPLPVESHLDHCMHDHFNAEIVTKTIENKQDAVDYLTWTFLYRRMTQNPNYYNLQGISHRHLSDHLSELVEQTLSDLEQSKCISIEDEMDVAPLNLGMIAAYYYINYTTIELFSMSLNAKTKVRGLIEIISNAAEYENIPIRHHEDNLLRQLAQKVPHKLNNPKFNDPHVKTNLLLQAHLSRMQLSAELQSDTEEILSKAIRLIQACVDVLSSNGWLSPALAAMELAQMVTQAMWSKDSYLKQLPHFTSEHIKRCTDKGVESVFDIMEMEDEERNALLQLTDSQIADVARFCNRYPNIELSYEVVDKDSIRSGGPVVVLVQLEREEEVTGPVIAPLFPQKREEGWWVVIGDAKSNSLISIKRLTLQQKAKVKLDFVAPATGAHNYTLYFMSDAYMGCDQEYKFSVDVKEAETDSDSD

[13] = molecular target: Serine/threonine-protein kinase N1 (Homo sapiens, UniProt Q16512)

Compound	Kd [1]	Kd [2]	Kd [3]	Kd (TGF-beta receptor type-2)	Kd [4]	Kd [5]	Kd [6]	Kd [7]	Kd [8]	Kd [9]	Kd [10]	Kd [11]	Kd [12]	Kd [13]
COc1cc2nccc(Oc3ccc(NC(=O)C4(C(=O)Nc5ccc(F)cc5)CC4)cc3)c2cc1OC [CABOZANTINIB]	> 30 µM (inactive)	> 30 µM (inactive)	> 30 µM (inactive)	> 30 µM (inactive)	> 30 µM (inactive)	> 30 µM (inactive)	> 30 µM (inactive)	> 30 µM (inactive)	> 30 µM (inactive)	> 30 µM (inactive)	> 30 µM (inactive)	> 30 µM (inactive)	> 30 µM (inactive)	> 30 µM (inactive)
COc1cccc(Nc2ncnn3ccc(CN4CC[C@@H](N)[C@H](O)C4)c23)c1 [BMS-690514]	> 30 µM (inactive)	> 30 µM (inactive)	–	> 30 µM (inactive)	1.37 µM (active)	> 30 µM (inactive)	> 30 µM (inactive)	> 30 µM (inactive)	> 30 µM (inactive)	> 30 µM (inactive)	1.87 µM (active)	> 30 µM (inactive)	> 30 µM (inactive)	1.34 µM (active)
CNC(=O)c1cc(COc2nnc(Nc3ccc(Cl)cc3)c3ccoc23)ccn1 [TELATINIB]	> 30 µM (inactive)	> 30 µM (inactive)	> 30 µM (inactive)	> 30 µM (inactive)	> 30 µM (inactive)	> 30 µM (inactive)	> 30 µM (inactive)	> 30 µM (inactive)	–	> 30 µM (inactive)	> 30 µM (inactive)	> 30 µM (inactive)	> 30 µM (inactive)	> 30 µM (inactive)
Cc1cc(-c2cc(OC(=O)c3ccccc3)ccc2Cl)cc2nnc(Nc3ccc(OCCN4CCCC4)cc3)nc12 [TG100-801]	> 30 µM (inactive)	> 30 µM (inactive)	> 30 µM (inactive)	0.703 µM (active)	> 30 µM (inactive)	> 30 µM (inactive)	> 30 µM (inactive)	> 30 µM (inactive)	> 30 µM (inactive)	> 30 µM (inactive)	> 30 µM (inactive)	> 30 µM (inactive)	–	> 30 µM (inactive)
NC[C@@](O)(c1ccc(Cl)cc1)c1ccc(-c2cn[nH]c2)cc1 [AT-13148]	> 30 µM (inactive)	> 30 µM (inactive)	–	–	> 30 µM (inactive)	> 30 µM (inactive)	> 30 µM (inactive)	0.009 µM (active)	> 30 µM (inactive)	> 30 µM (inactive)	> 30 µM (inactive)	> 30 µM (inactive)	> 30 µM (inactive)	0.025 µM (active)
Cc1c(NC(=O)OC[C@@H]2COCCN2)cn2ncnc(Nc3ccc4c(cnn4Cc4cccc(F)c4)c3)c12 [AC-480]	> 30 µM (inactive)	–	> 30 µM (inactive)	> 30 µM (inactive)	> 30 µM (inactive)	> 30 µM (inactive)	> 30 µM (inactive)	> 30 µM (inactive)	> 30 µM (inactive)	> 30 µM (inactive)	> 30 µM (inactive)	> 30 µM (inactive)	> 30 µM (inactive)	> 30 µM (inactive)
C=CCN(/C=C1/C(=O)O[C@H](COC)[C@@]2(C)C1=C(O)C(=O)C1=C2[C@H](OC(C)=O)C[C@]2(C)C(=O)CC[C@@H]12)CC=C [SONOLISIB]	> 30 µM (inactive)	> 30 µM (inactive)	–	> 30 µM (inactive)	> 30 µM (inactive)	> 30 µM (inactive)	> 30 µM (inactive)	> 30 µM (inactive)	> 30 µM (inactive)	> 30 µM (inactive)	> 30 µM (inactive)	> 30 µM (inactive)	> 30 µM (inactive)	> 30 µM (inactive)
O=C(O)c1ccc2c(c1)nc(Nc1cccc(Cl)c1)c1ccncc12 [SILMITASERTIB]	> 30 µM (inactive)	> 30 µM (inactive)	> 30 µM (inactive)	> 30 µM (inactive)	> 30 µM (inactive)	> 30 µM (inactive)	> 30 µM (inactive)	> 30 µM (inactive)	–	> 30 µM (inactive)	6.17 µM (active)	1.69 µM (active)	> 30 µM (inactive)	20.4 µM (active)
S=C(NCc1ccc2c(c1)OCO2)N1CCN(c2ncnc3c2oc2ccccc23)CC1 [AMUVATINIB]	> 30 µM (inactive)	> 30 µM (inactive)	> 30 µM (inactive)	–	> 30 µM (inactive)	> 30 µM (inactive)	> 30 µM (inactive)	> 30 µM (inactive)	> 30 µM (inactive)	> 30 µM (inactive)	> 30 µM (inactive)	> 30 µM (inactive)	> 30 µM (inactive)	> 30 µM (inactive)
C=CC(=O)Nc1cc(Nc2nccc(-c3cn(C)c4ccccc34)n2)c(OC)cc1N(C)CCN(C)C [OSIMERTINIB]	> 30 µM (inactive)	> 30 µM (inactive)	> 30 µM (inactive)	–	> 30 µM (inactive)	> 30 µM (inactive)	> 30 µM (inactive)	> 30 µM (inactive)	–	> 30 µM (inactive)	> 30 µM (inactive)	> 30 µM (inactive)	> 30 µM (inactive)	> 30 µM (inactive)
CC1(COc2ccc3c(c2)ncn3-c2ccc3cccc(N4CCC(N)CC4)c3n2)COC1 [CRENOLANIB]	> 30 µM (inactive)	> 30 µM (inactive)	> 30 µM (inactive)	> 30 µM (inactive)	> 30 µM (inactive)	1.07 µM (active)	–	1.21 µM (active)	> 30 µM (inactive)	> 30 µM (inactive)	> 30 µM (inactive)	0.128 µM (active)	> 30 µM (inactive)	0.165 µM (active)
O=c1[nH]c([C@@H]2CCCN2)nc2c1oc1ccc(Cl)cc12	> 30 µM (inactive)	> 30 µM (inactive)	–	> 30 µM (inactive)	> 30 µM (inactive)	> 30 µM (inactive)	> 30 µM (inactive)	> 30 µM (inactive)	–	> 30 µM (inactive)	> 30 µM (inactive)	> 30 µM (inactive)	> 30 µM (inactive)	> 30 µM (inactive)
COc1ccc(-c2ccc3ncc4c(c3c2)n(-c2ccc(N3CCNCC3)c(C(F)(F)F)c2)c(=O)n4C)cn1 [BGT-226 FREE BASE]	> 30 µM (inactive)	–	> 30 µM (inactive)	> 30 µM (inactive)	> 30 µM (inactive)	> 30 µM (inactive)	> 30 µM (inactive)	> 30 µM (inactive)	> 30 µM (inactive)	> 30 µM (inactive)	> 30 µM (inactive)	> 30 µM (inactive)	> 30 µM (inactive)	> 30 µM (inactive)
